Patent US20100087466A1, “NOVEL SMALL MOLECULE DNAK INHIBITORS” (priority 2008, published 2010)
In brackets after ≈: the same amount, converted by molar mass. Where a name gives a salt, the structure may show the parent alone. Read-outs that look alike come from different tables or passages of the source. Non-standard residues stand in square brackets, D forms with d. Residues, ends and D or L forms follow the SMILES beside them. ξ: configuration not given here. *: point of attachment. Phe(4-NH2) = Nc1ccc(C[C@H](N)C(=O)O)cc1; 2Nal = N[C@@H](Cc1ccc2ccccc2c1)C(=O)O; Hydrocinnamoyl = O=C(CCc1ccccc1)*; NH(CH2)3Ph = c1ccc(CCCN*)cc1; 2Pyrimidinyl = c1cnc(*)nc1; ξR = N=C(N)NCCCC(N)C(=O)O; Octanoyl = CCCCCCCC(=O)*; Orn = NCCC[C@H](N)C(=O)O; Piperidide = C1CCN(*)CC1; Cbz = O=C(OCc1ccccc1)*; Boc = CC(C)(C)OC(=O)*; Bn = c1ccc(C*)cc1; NHBu = CCCCN*

Experiments:
DnaK = DnaK (Escherichia coli, UniProt P0A6Y8); assay: DnaK Inhibition Assay (DnaK induced refolding of denatured firefly luciferase); format: biochemical, E. coli; settings: DnaK 200 nM, DnaJ 100 nM, GrpE 400 nM
DnaK, sequence (P0A6Y8 2-638): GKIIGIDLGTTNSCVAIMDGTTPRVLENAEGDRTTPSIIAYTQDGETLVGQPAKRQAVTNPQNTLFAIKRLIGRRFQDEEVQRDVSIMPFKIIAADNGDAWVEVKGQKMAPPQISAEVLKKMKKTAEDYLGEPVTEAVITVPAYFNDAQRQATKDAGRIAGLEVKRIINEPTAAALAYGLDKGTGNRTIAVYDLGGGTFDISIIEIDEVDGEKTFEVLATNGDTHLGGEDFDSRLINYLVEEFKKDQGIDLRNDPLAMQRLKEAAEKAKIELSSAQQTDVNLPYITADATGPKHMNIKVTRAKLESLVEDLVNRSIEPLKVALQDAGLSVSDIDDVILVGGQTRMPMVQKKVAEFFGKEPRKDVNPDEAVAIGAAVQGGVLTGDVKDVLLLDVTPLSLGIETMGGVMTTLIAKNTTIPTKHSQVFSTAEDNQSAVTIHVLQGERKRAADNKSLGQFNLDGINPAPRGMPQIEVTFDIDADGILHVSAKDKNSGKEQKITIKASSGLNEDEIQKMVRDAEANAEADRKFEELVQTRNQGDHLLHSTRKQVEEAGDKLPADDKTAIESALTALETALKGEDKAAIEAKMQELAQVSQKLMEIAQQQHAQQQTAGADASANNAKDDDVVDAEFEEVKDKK
Description: Inhibition of the bacterial DnaK chaperone system may be evaluated by inhibition of the DnaK induced refolding of denatured firefly luciferase. More specifically, firefly luciferase is denatured by treatment with 8N guanidium hydrochloride at room temperature for 30 mins and then 5° C. for 1 h. After dilution into cold MOPS buffer augmented with ATP (2.5 mM) and DTT (12.5 mM) and standing for a further hour, the denatured luciferase is refolded by addition to a mixture of chaperone proteins in MOPS buffer, resulting in a reaction mixture containing denatured luciferase (24 nM), DnaK (200 nM), DnaJ (100 nM) and GrpE (400 nM). The extent of refolding is determined by addition of a luciferase substrate and measurement of the emitted chemoluminescence. In this format the substrate is the commercially available luciferase “Steady-Glo” reagent from Promega, Inc. Inhibition of DnaK induced refolding is determined by premixing the chaperone proteins with the test agent at concentrations of test agent ranging from 1-100 μg/mL. The extent of refolding is compared to that with no test reagent, and the IC50 is estimated by fitting the data to a standard sigmoidal dose-response curve.
Inhibition of the bacterial DnaK chaperone system was evaluated by inhibition of the DnaK induced refolding of denatured firefly luciferase. Firefly luciferase was denatured by treatment with 8N guanidium hydrochloride at room temperature for 30 mins and then 5° C. for 1 h. After dilution into cold MOPS buffer augmented with ATP (2.5 mM) and DTT (12.5 mM) and standing for a further hour, the denatured luciferase was refolded by addition to a mixture of chaperone proteins in MOPS buffer, resulting in a reaction mixture containing denatured luciferase (24 nM), DnaK (200 nM), DnaJ (100 nM) and GrpE (400 nM). The extent of refolding was determined by addition of a luciferase substrate and measurement of the emitted chemoluminescence. In this format the substrate is the commercially available luciferase “Steady-Glo” reagent from Promega, Inc. Inhibition of DnaK induced refolding was determined by premixing the chaperone proteins with the test agent at concentrations of test agent ranging from 1-100 μg/mL. The extent of refolding was compared to that with no test reagent, and the IC50 was estimated by fitting the data to a standard sigmoidal dose-response curve.
IC50 is defined as the concentration in μM at which 50% inhibition of DnaK induced refolding of denatured firefly luciferase occurs.

E. coli (ATCC 25922) = assay: Antibacterial activity against E. coli (MIC); format: cell-based; settings: for MIC: Escherichia coli, ATCC25922
[1] = read-out: DnaK IC50(μg/ml) (converted)

| Compound | IC50 (DnaK; read-out: DnaK IC50) [µM] | IC50 (DnaK; [1]) [µM] | MIC (E. coli (ATCC 25922)) [µg/mL] | DnaK IC50(μg/ml) (DnaK) [µg/mL] | E. coli (ATCC 25922) MIC (E. coli (ATCC 25922); ATCC 25922) [µg/mL] |
| --- | --- | --- | --- | --- | --- |
| CCCCNC(=O)[C@@H]1CCCN1C(=O)[C@H](CCCNC(=N)N)NC(=O)[C@@H]1CCCN1C(=O)[C@H](CC(C)C)NC(=O)[C@H](Cc1ccc(O)cc1)NC(C)=O [Structure 15, Ac-Tyr-Leu-Pro-Arg-Pro-NHBu.TFA] (Ac-YLPRP-NHBu) | 24 | 39.1 |  |  |  |
| CC(=O)N[C@@H](Cc1ccc(OCc2ccccc2)cc1)C(=O)N[C@@H](CC(C)C)C(=O)N1CCC[C@H]1C(=O)N[C@@H](CCCN)C(=O)N1CCC[C@H]1C(=O)NCCCc1ccccc1 [Structure 20, Ac-Tyr(Bzl)-Leu-Pro-Orn-Pro-NH(CH2)3Ph] (Ac-Y(Bn)LP[Orn]P-{NH(CH2)3Ph}) | 16 | 20 |  |  |  |
| CCCCCCCC(=O)N[C@@H](Cc1ccc(OCc2ccccc2)cc1)C(=O)N[C@@H](CC(C)C)C(=O)N1CCC[C@H]1C(=O)N[C@H](CCCNC(=N)N)C(=O)OC [Structure 26, Octanoyl-Tyr(Bzl)-Leu-Pro-Arg-OMe trifluoroacetate] (Octanoyl-Y(Bn)LP[dR]-OMe) | 30 | 34.7 | 32 |  |  |
| Ac-YLPRP-NH2 [Structure 1, Ac-Tyr-Leu-pro-Arg-Pro-NH2] | 58 | 67.1 |  |  |  |
| CCCCCCCC(=O)N[C@@H](Cc1ccc(O)cc1)C(=O)N[C@@H](CC(C)C)C(=O)N1CCC[C@H]1C(=O)N[C@H](CCCNC(=N)N)C(=O)N1CCCCC1 [Structure 27, Octanoyl-Tyr-Leu-Pro-Arg-N(CH2)5 trifluoroacetate] (Octanoyl-YLP[dR]-Piperidide) | 8 | 9.45 |  |  |  |
| CC(=O)N[C@@H](Cc1ccc(OCc2ccccc2)cc1)C(=O)N[C@@H](CC(C)C)C(=O)N1CCC[C@H]1C(=O)N[C@@H](CCCNC(=O)OC(C)(C)C)C(=O)N1CCC[C@H]1C(=O)NCCCc1ccccc1 [Structure 17, Ac-Tyr(Bzl)-Leu-Pro-Orn(Boc)-Pro-NH(CH2)3Ph] (Ac-Y(Bn)LP[Orn](Boc)P-{NH(CH2)3Ph}) | 21 | 20 |  |  |  |
| CCC(C)[C@H](NC(=O)[C@H](Cc1ccc(O)cc1)NC(C)=O)C(=O)N[C@@H](CO)C(=O)O (stereo partly drawn) [Structure 24, Ac-Tyr-Ile-Ser-OH] | 240 | 309 |  |  |  |
| CCCCCCCC(=O)N[C@@H](Cc1ccc(OCc2ccccc2)cc1)C(=O)N[C@@H](CC(C)C)C(=O)N1CCC[C@H]1C(=O)N[C@H](CCCNC(=N)N)C(=O)N1CCCCC1 [Structure 28, Octanoyl-Tyr(Bzl)-Leu-Pro-Arg-N(CH2)5 trifluoroacetate] (Octanoyl-Y(Bn)LP[dR]-Piperidide) | 13 | 14.4 | 32 |  |  |
| CC(=O)N[C@@H](Cc1ccc(O)cc1)C(=O)N[C@@H](CC(C)C)C(=O)N1CCC[C@H]1C(=O)NC(CCCNC(=N)N)C(N)=O (some centres unmarked) [Structure 34] (Ac-YLP[ξR]-NH2) |  |  | > 256 |  |  |
| COC(=O)[C@@H]1CCCN1C(=O)[C@H](CC(C)C)NC(=O)[C@H](Cc1ccc2ccccc2c1)NC(C)=O [Structure 8, Ac-2-Nal-Leu-Pro-OMe] (Ac-[2Nal]-Leu-Pro-OMe) | 30 | 127 |  |  |  |
| CC(=O)N[C@@H](Cc1ccc(O)cc1)C(=O)N[C@@H](CC(C)C)C(=O)N1CCC[C@H]1C(=O)N[C@@H](CCCN)C(=O)N1CCC[C@H]1C(=O)NCCCc1ccccc1 [Structure 19, Ac-Tyr-Leu-Pro-Orn-Pro-NH(CH2)3Ph] (Ac-YLP[Orn]P-{NH(CH2)3Ph}) | 40 | 60.4 |  |  |  |
| CCCCCCCC(=O)N[C@@H](Cc1ccc(OCc2ccccc2)cc1)C(=O)N[C@@H](CC(C)C)C(=O)N1CCC[C@H]1C(=O)N1CCCC(CNC(=N)N)C1 (stereo partly drawn) [Structure 33, Octanoyl-Tyr(Bzl)-Leu-Pro-(3-guanidinomethylpiperidine) trifluoroacetate] | 23 | 26.8 | 16 |  |  |
| CC(=O)N[C@@H](Cc1ccc(OCc2ccccc2)cc1)C(=O)N[C@@H](CC(C)C)C(=O)N1CCC[C@H]1C(=O)N[C@@H](CCCNC(=N)N)C(=O)N1CCCCC1 [Structure 14] (Ac-Y(Bn)LPR-Piperidide) | 25 | 37.5 |  |  |  |
| CC(=O)N[C@@H](Cc1ccc(NC(=O)OCc2ccccc2)cc1)C(=O)N[C@@H](CC(C)C)C(=O)N1CCC[C@H]1C(=O)O [Structure 7, Ac-4-(NHCbz)Phe-Leu-Pro-OH] (Ac-[Phe(4-NH2)](Cbz)-Leu-Pro-OH) | 72 | 224 |  |  |  |
| CCC(C)[C@H](NC(=O)[C@H](Cc1ccc(O)cc1)NC(C)=O)C(=O)N[C@@H](CO)C(=O)OC (stereo partly drawn) [Structure 23, Ac-Tyr-Ile-Ser-OMe] | 101 | 530 |  |  |  |
| CC(=O)N[C@@H](Cc1ccc2ccccc2c1)C(=O)N[C@@H](CC(C)C)C(=O)N1CCC[C@H]1C(=O)O [Structure 9] (Ac-[2Nal]-Leu-Pro-OH) | 62 | 282 |  |  |  |
| COC(=O)[C@@H]1CCCN1C(=O)[C@H](CC(C)C)NC(=O)[C@H](Cc1ccc(NC(=O)OCc2ccccc2)cc1)NC(C)=O [Structure 6, Ac-4-(NHCbz)Phe-Leu-Pro-OMe] (Ac-[Phe(4-NH2)](Cbz)-Leu-Pro-OMe) | 147 | 420 |  |  |  |
| CC(C)C[C@H](NC(=O)[C@H](Cc1ccc(O)cc1)NC(=O)OC(C)(C)C)C(=O)N1CCC[C@H]1C(=O)N[C@@H](CCCNC(=N)N)C(=O)N1CCC[C@H]1C(=O)NCCCc1ccccc1 [Structure 12, Boc-Tyr-Leu-Pro-Arg-Pro-NH(CH2)3Ph] (Boc-YLPRP-{NH(CH2)3Ph}) | 11 | 12.8 |  |  |  |
| CC(C)C[C@H](NC(=O)CCc1ccccc1)C(=O)N1CCC[C@H]1C(=O)N[C@@H](CCCNC(=N)N)C(=O)N1CCCCC1 [Structure 13, Ph(CH2)2C(O)-Leu-Pro-Arg-N(CH2)5] (Hydrocinnamoyl-Leu-Pro-Arg-Piperidide) | 12 | 29.1 |  |  |  |
| CCCCCCCC(=O)N[C@@H](Cc1ccc(OCc2ccccc2)cc1)C(=O)N[C@@H](CC(C)C)C(=O)N1CCC[C@H]1C(=O)NCCNC(=N)N [Structure 30, Octanoyl-Tyr(Bzl)-Leu-Pro-NH(CH2)2 NH—C(═NH)—NH2 trifluoroacetate] | 19 | 21.7 | 32 |  |  |
| CCCCCCCC(=O)N[C@@H](Cc1ccc(OCc2ccccc2)cc1)C(=O)N[C@@H](CC(C)C)C(=O)N1CCC[C@H]1C(=O)N1CC[C@H](NC(=N)N)C1 [Structure 29, Octanoyl-Tyr(Bzl)-Leu-Pro-(S)-(3-guanidino)pyrrolidinyl amide] | 10 | 11.1 | 32 (≈ 44.6 µM) |  |  |
| 3-(Octylamido)-nicotinoyl-Tyr(Bzl)-Leu-Pro-Arg-OMe trifluoroacetate [Structure 31] | 10 |  |  | 10 | 32 |
| CC(=O)N[C@@H](Cc1ccc(O)cc1)C(=O)N[C@@H](CC(C)C)C(=O)N1CCC[C@H]1C(=O)N[C@@H](CCCNC(=N)N)C(=O)N1CCC[C@H]1C(=O)NCCCc1ccccc1 [Structure 16, Ac-Tyr-Leu-Pro-Arg-Pro-NH(CH2)3Ph.TFA] (Ac-YLPRP-{NH(CH2)3Ph}) | 24 | 32.3 |  |  |  |
| CC(=O)N[C@@H](Cc1ccc(OCc2ccccc2)cc1)C(=O)N[C@@H](CC(C)C)C(=O)N1CCC[C@H]1C(=O)NCCCCN [Structure 5, Ac-Tyr(Bzl)-Leu-Pro-NH(CH2)4NH2.TFA] | 45 | 106 |  |  |  |
| CC(=O)N[C@@H](Cc1ccc(O)cc1)C(=O)N[C@@H](CC(C)C)C(=O)N1CCC[C@H]1C(=O)N[C@@H](CCCNC(=O)OC(C)(C)C)C(=O)N1CCC[C@H]1C(=O)NCCCc1ccccc1 [Structure 18, Ac-Tyr-Leu-Pro-Orn(Boc)-Pro-NH(CH2)3Ph] (Ac-YLP[Orn](Boc)P-{NH(CH2)3Ph}) | 54 | 63.8 |  |  |  |
| CC(=O)N[C@@H](Cc1ccc(O)cc1)C(=O)N[C@@H](CC(C)C)C(=O)N1CCC[C@H]1C(=O)N[C@@H](CCCNC(=N)N)C(=O)N1CCCCC1 [Structure 4, Ac-Tyr-Leu-Pro-Arg-N(CH2)5.TFA] (Ac-YLPR-Piperidide) | 3 | 6.09 |  |  |  |
| CC(=O)N[C@@H](Cc1ccc(OCc2ccccc2)cc1)C(=O)N[C@@H](CC(C)C)C(=O)N1CCC[C@H]1C(=O)N[C@@H](CCCNc1ncccn1)C(=O)N1CCC[C@H]1C(=O)NCCCc1ccccc1 [Structure 21, Ac-Tyr(Bzl)-Leu-Pro-Orn(2-pyrimidine)-Pro-NH(CH2)3Ph] (Ac-Y(Bn)LP[Orn](2Pyrimidinyl)P-{NH(CH2)3Ph}) | 22 | 22.6 |  |  |  |
